Patent publication US20240368168A1, “SARM1 ENZYME ACTIVITY INHIBITOR AND APPLICATION THEREOF” (ARTIVILA BIOPHARMA, priority 2021, published 2024)

Legend:
dN-SARM1 protein [1] = target: T1, dN-SARM1 protein (Homo sapiens, UniProt Q6SZW1); test: In vitro biochemical assay for inhibiting SARM1 enzymatic activity (% inhibition rate), PC6 fluorescence method; conditions: 20 μM compound; 50 μM NAD, 50 μM PC6, 50 μM NMN activator
T1 construct: the N-terminal mitochondrial localization signal peptide of SARM1 was removed
T1 sequence (Q6SZW1 28-724): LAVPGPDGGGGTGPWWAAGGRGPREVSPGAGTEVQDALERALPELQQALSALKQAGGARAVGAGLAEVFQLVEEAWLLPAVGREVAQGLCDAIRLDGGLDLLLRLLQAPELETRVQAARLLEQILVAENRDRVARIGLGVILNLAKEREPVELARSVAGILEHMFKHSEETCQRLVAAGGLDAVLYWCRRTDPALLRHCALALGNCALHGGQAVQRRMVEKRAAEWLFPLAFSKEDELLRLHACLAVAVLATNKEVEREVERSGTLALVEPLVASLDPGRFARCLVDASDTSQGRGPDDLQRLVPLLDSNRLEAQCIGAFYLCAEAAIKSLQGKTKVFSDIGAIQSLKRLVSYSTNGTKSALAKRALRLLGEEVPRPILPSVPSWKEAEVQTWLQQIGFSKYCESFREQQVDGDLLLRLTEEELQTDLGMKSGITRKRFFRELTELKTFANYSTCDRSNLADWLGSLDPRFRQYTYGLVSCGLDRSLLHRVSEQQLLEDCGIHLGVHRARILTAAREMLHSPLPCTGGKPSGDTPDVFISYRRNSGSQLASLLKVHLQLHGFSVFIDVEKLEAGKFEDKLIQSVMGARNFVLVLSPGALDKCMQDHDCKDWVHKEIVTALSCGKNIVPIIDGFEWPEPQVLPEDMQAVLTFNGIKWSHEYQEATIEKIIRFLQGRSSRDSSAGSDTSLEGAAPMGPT
Method: The compounds were subjected to PC6 fluorescence method measurement [Chinese Patent 202010528147.3] using the dN-SARM1 protein obtained through “(4) Protein extraction” in “Expression and purification of SARM1 protein” in the above biological activity example 1.
First, 0.05 μg/ml dN-SARM1 and 20 μM compound were incubated in 50 mM Tris-HCl (pH 7.5) solution for 10 min, and then added with 50 μM NAD and 50 μM PC6 as substrate and 50 μM NMN as activator for 30 minutes of reaction at room temperature. The concentration of each component was the final concentration in the reaction system.
During the reaction, PC6 fluorescence spectrum dynamics were detected by a microplate reader, wherein the excitation wavelength and emission wavelength for detection were 390 nm and 520 nm, respectively. Finally, the reaction rate was used to express the activity of the protein. The higher the reaction rate, the stronger the activity of the protein and the lower the inhibitory efficiency of the compound.

dN-SARM1 protein [2] = target: T1, dN-SARM1 protein; test: In vitro biochemical assay for inhibiting SARM1 enzymatic activity (IC50), PC6 fluorescence method; conditions: 50 μM NAD, 50 μM PC6, 50 μM NMN activator
Summary of the method: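 Activity read as the rate of PC6 fluorescence change (390 nm excitation, 520 nm emission) over a 30 min room-temperature reaction containing final 50 μM each of NAD, PC6 and NMN activator. Enzyme, 0.05 μg/ml dN-SARM1 in 50 mM Tris-HCl pH 7.5, first incubated 10 min with compound diluted serially from 200 μM; IC50 calculated.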

SMILES	inhibition at 20 µM (dN-SARM1 protein [1])	IC50 (dN-SARM1 protein [2])
CNc1ccc2ncc(-c3cccc(S(=O)(=O)NCCOCCOC)c3)n2c1 [Compound 109, N-(2-(2-methoxyethoxy)ethyl)-3-(6-(methylamino)imidazo[1,2-a]pyridin-3-yl)benzenesulfonamide]	50 to 89%	–
CN(C(=O)OC(C)(C)C)c1ccc2ncc(-c3ccccc3)n2n1 [Compound 95, tert-butyl methyl(3-phenylimidazo[1,2-b]pyridazin-6-yl) carbamate]	50 to 89%	–
COc1ccn2c(-c3ccccc3)cnc2c1 [Compound 26]	> 90%	< 1000 nM
CC(C)(C)Oc1ccc2ncc(-c3cccc(NC(=O)C4CCOCC4)c3)n2c1 [Compound 55]	> 90%	1000 to 10000 nM
Ic1cccc2ncc(I)n12 [Compound 28]	50 to 89%	–
CCOC(=O)CCC(=O)Nc1cccc(-c2cnc3ccc(N(C)C(=O)OC(C)(C)C)cn23)c1 [Compound 151]	> 90%	1000 to 10000 nM
CC(C)(C)OC(=O)Nc1ccc2ncc(-c3ccc(C(=O)NC4CCOCC4)s3)n2c1 [Compound 127, tert-butyl (3-(5-((tetrahydro-2H-pyran-4-yl)carbamoyl)thiophen-2-yl)imidazo[1,2-a]pyridin-6-yl)carbamate]	50 to 89%	–
COCCOCC(=O)Nc1cccc(-c2cnc3ccc(CNC(=O)C(C)(C)C)cn23)c1 [Compound 146]	> 90%	1000 to 10000 nM
CN(C(=O)OC(C)(C)C)c1ccc2ncc(-c3cccc(NC(=O)NC[C@@H]4CCO4)c3)n2c1 [Compound 152]	> 90%	1000 to 10000 nM
COCCOCCNC(=O)c1cccc(-c2cnc3ccc(N(C)C(=O)OC(C)(C)C)cn23)c1 [Compound 133, tert-butyl (3-(3-((2-(2-methoxyethoxy)ethyl)carbamoyl)phenyl)imidazo[1,2-a]pyridin-6-yl)(methyl)carbamate]	50 to 89%	–
CN1CCN(c2ccc3ncc(-c4ccccc4)n3c2)CC1 [Compound 37]	50 to 89%	1000 to 10000 nM
CC(C)(C)OC(=O)Nc1ccc2ncc(-c3cc(C(=O)NC4CCOCC4)cs3)n2c1 [Compound 125, tert-butyl (3-(4-((tetrahydro-2H-pyran-4-yl)carbamoyl)thiophen-2-yl)imidazo[1,2-a]pyridin-6-yl) carbamate]	> 90%	1000 to 10000 nM
CC(C)(C)OC(=O)NCc1ccc2ncc(I)n2c1 [Compound 143]	> 90%	1000 to 10000 nM
CN(C(=O)OC(C)(C)C)c1ccc2ncc(-c3cccc(NC(=O)CN4CCOCC4)c3)n2c1 [Compound 147]	> 90%	–
CN(C(=O)OC(C)(C)C)c1ccc2ncc(-c3cccc(NC(=O)C4CCOC4)c3)n2c1 (centres unmarked) [Compound 149]	> 90%	1000 to 10000 nM
CN1CCC(C(=O)Nc2cccc(-c3cnc4ccc(N(C)C(=O)OC(C)(C)C)cn34)c2)CC1 [Compound 48]	50 to 89%	–
CNc1ccc2ncc(-c3cccc(OCC4CCOCC4)c3)n2c1 [Compound 154]	> 90%	< 1000 nM
CCOC(=O)c1ccc2ncc(-c3ccccc3)n2c1 [Compound 24]	> 90%	1000 to 10000 nM
CNc1ccc2ncc(-c3cccc(NC(=O)COCCOC)c3)n2c1 [Compound 77]	> 90%	1000 to 10000 nM
CNc1ccc2ncc(Br)n2n1 [Compound 1, 3-bromo-N-methylimidazo[1,2-b]pyridazin-6-amine]	> 90%	–
CC(C)(C)OC(=O)NCc1ccc2ncc(-c3cccc(N)c3)n2c1 [Compound 144]	> 90%	< 1000 nM
COCCOCC(=O)Nc1cccc(-c2cnc3ccc(CNC(=O)OC(C)(C)C)cn23)c1 [Compound 145]	> 90%	< 1000 nM
CN(C(=O)OC(C)(C)C)c1ccc2ncc(-c3cccc(NC(=O)CN4CCC(O)C4)c3)n2c1 (centres unmarked) [Compound 148]	> 90%	–

SMILES	inhibition at 20 µM (dN-SARM1 protein [1])	IC50 (dN-SARM1 protein [2])
CN1CCN(c2ccc3nccn3c2)CC1 [Compound 35]	50 to 89%	–
Cc1ccc2ncc(-c3cccc(NC(=O)C4CCOCC4)c3)n2c1 [Compound 54]	> 90%	< 1000 nM
CNc1ccc2ncc(-c3cccc(S(=O)(=O)NC4CCOCC4)c3)n2c1 [Compound 110, 3-(6-(methylamino)imidazo[1,2-a]pyridin-3-yl)-N-(tetrahydro-2H-pyran-4-yl)benzenesulfonamide]	> 90%	< 1000 nM
CNc1ccc2ncc(-c3cccc(C(=O)NC4CCOCC4)c3)n2c1 [Compound 136]	> 90%	< 1000 nM
COCCOCC(=O)Nc1cccc(-c2cnc3ccc(C)cn23)c1 [Compound 53]	> 90%	1000 to 10000 nM
CN(C)c1ccc2ncc(-c3ccccc3)n2n1 [Compound 94, N,N-dimethyl-3-phenylimidazo[1,2-b]pyridazin-6-amine]	> 90%	< 1000 nM
CN(C(=O)OC(C)(C)C)c1ccc2ncc(-c3cccc(NC(=O)C4COC4)c3)n2c1 [Compound 150]	> 90%	1000 to 10000 nM
CC(C)(C)OC(=O)Nc1ccc2ncc(C(=O)NCCOCCOCCNC(=O)c3cnc4ccc(NC(=O)OC(C)(C)C)cn34)n2c1 [Compound 139]	50 to 89%	–
COCCOCC(=O)Nc1cccc(-c2cnc3ccc(N)cn23)c1 [Compound 128, N-(3-(6-aminoimidazo[1,2-a]pyridin-3-yl)phenyl)-2-(2-methoxyethoxy)acetamide]	> 90%	1000 to 10000 nM
COCCOCC(=O)Nc1cccc(-c2cnc3ccc(N4CCOCC4)cn23)c1 [Compound 56]	> 90%	< 1000 nM
CN(C(=O)OC(C)(C)C)c1ccc2ncc(-c3ccnc(N)c3)n2c1 [Compound 41]	> 90%	1000 to 10000 nM
CC(C)(C)OC(=O)Nc1ccc2ncc(-c3ccccc3)n2n1 [Compound 22]	50 to 89%	–
CN(C(=O)OC(C)(C)C)c1ccc2ncc(-c3cccc(C(=O)O)c3)n2c1 [Compound 132, 3-(6-((tert-butoxycarbonyl)(methyl)amino)imidazo[1,2-a]pyridin-3-yl)benzoic acid]	> 90%	1000 to 10000 nM
CN(C(=O)OC(C)(C)C)c1ccc2ncc(-c3cccc(C(=O)NC4CCOCC4)c3)n2c1 [Compound 135]	50 to 89%	–
CNc1ccc2ncc(-c3cccc(OCCOCCOC)c3)n2c1 [Compound 153]	> 90%	1000 to 10000 nM
COCCOCCNS(=O)(=O)c1cccc(-c2cnc3ccc(N(C)C(=O)OC(C)(C)C)cn23)c1 [Compound 108, tert-butyl (3-(3-(N-(2-(2-methoxyethoxy)ethyl)sulfamoyl)phenyl)imidazo[1,2-a]pyridin-6-yl)(methyl)carbamate]	50 to 89%	1000 to 10000 nM
CNc1ccc2ncc(-c3cccc(C(=O)NCCOCCOC)c3)n2c1 [Compound 134]	> 90%	< 1000 nM
COc1cccn2c(-c3ccccc3)cnc12 [Compound 27]	50 to 89%	1000 to 10000 nM
COCCOCC(=O)Nc1cccc(-c2cnc3ccc(NC(=O)COC)cn23)c1 [Compound 131]	> 90%	1000 to 10000 nM
CN(C(=O)C(F)(F)F)c1ccc2ncc(NC(=O)COCCOCCOCC(=O)Nc3cnc4ccc(N(C)C(=O)C(F)(F)F)cn34)n2c1 [Compound 142, N,N′-(3,3′-((2,2′-((oxybis(ethane-2,1-diyl))bis(oxy))bis (acetyl))bis(azadialkyl))bis(imidazo[1,2-a]pyridin-6,3-diyl))bis(2,2,2-trifluoro-N-methylacetamide)]	> 90%	–
Nc1cn2c(-c3ccccc3)cnc2cc1Cl [Compound 19]	> 90%	–
CCOC(=O)c1ccc(-c2cnc3ccc(NC(=O)OC(C)(C)C)cn23)s1 [Compound 126, ethyl 5-(6-((tert-butoxycarbonyl)amino)imidazo[1,2-a]pyridin-3-yl)thiophen-2-carboxylate]	> 90%	–
